PubChem BioAssay (NCI)
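Grown in 96-well plates, cells were treated for 48 hours with each compound at five concentrations. Insufficient inhibition: endpoint recorded as highest concentration tested. Here, GI50 denotes the concentration required for 50% inhibition of growth. TGI denotes the concentration required for complete inhibition of growth.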

What was measured:
Test in all cases: growth of human tumour cells (NCI), 48 h
[1] = tested on: OVCAR-3 ovarian
[2] = tested on: RXF 393 renal
[3] = tested on: HCC-2998 colon
[4] = tested on: SF-268 CNS
[5] = tested on: DU-145 prostate
[6] = tested on: U251 CNS
[7] = tested on: HT29 colon
[8] = tested on: SF-295 CNS
[9] = tested on: CAKI-1 renal
[10] = tested on: M14 melanoma
[11] = tested on: NCI-H460 lung
[12] = tested on: SF-539 CNS
[13] = tested on: CCRF-CEM leukemia
[14] = tested on: RPMI-8226 leukemia
[15] = tested on: IGROV1 ovarian
[16] = tested on: SW-620 colon
[17] = tested on: HCT-15 colon
[18] = tested on: ACHN renal
[19] = tested on: UACC-257 melanoma
[20] = tested on: T-47D breast
[21] = tested on: SNB-75 CNS
[22] = tested on: MCF7 breast
[23] = tested on: NCI-H226 lung
[24] = tested on: SK-MEL-5 melanoma
[25] = tested on: EKVX NSCLC
[26] = tested on: NCI-H23 lung
[27] = tested on: SK-MEL-28 melanoma
[28] = tested on: SK-OV-3 ovarian
[29] = tested on: KM12 colon
[30] = tested on: OVCAR-8 ovarian
[31] = tested on: UACC-62 melanoma
[32] = tested on: HOP-62 NSCLC
[33] = tested on: SK-MEL-2 melanoma
[34] = tested on: BT-549 breast
[35] = tested on: SNB-19 CNS
[36] = tested on: MALME-3M melanoma
[37] = tested on: COLO 205 colon
[38] = tested on: SN12C renal
[39] = tested on: HCT-116 colon
[40] = tested on: LOX IMVI melanoma
[41] = tested on: MDA-MB-231 breast
[42] = tested on: MDA-MB-435
[43] = tested on: HOP-92 NSCLC
[44] = tested on: TK-10 renal
[45] = tested on: A549 NSCLC
[46] = tested on: NCI-H522 lung
[47] = tested on: 786-0 renal
[48] = tested on: HS 578T breast
[49] = tested on: NCI/ADR-RES ovarian
[50] = tested on: UO-31 renal
[51] = tested on: OVCAR-5 ovarian
[52] = tested on: PC-3 prostate
[53] = tested on: A498 renal
[54] = tested on: OVCAR-4 ovarian
[55] = tested on: K-562 leukemia

O=C(c1ccccc1)c1cc2ccccc2o1
GI50 [1]: 59.6 µM
TGI [1]: > 100 µM
GI50 [2]: 88 µM
TGI [2]: > 100 µM
GI50 [3]: > 100 µM
TGI [3]: > 100 µM
GI50 [4]: 70.3 µM
TGI [4]: > 100 µM
GI50 [5]: 73.6 µM
TGI [5]: > 100 µM
GI50 [6]: 54.5 µM
TGI [6]: > 100 µM
GI50 [7]: 76.1 µM
TGI [7]: > 100 µM
GI50 [8]: 71.7 µM
TGI [8]: > 100 µM
GI50 [9]: 67 µM
TGI [9]: > 100 µM
GI50 [10]: > 100 µM
TGI [10]: > 100 µM
GI50 [11]: > 100 µM
TGI [11]: > 100 µM
GI50 [12]: > 100 µM
TGI [12]: > 100 µM
GI50 [13]: > 100 µM
TGI [13]: > 100 µM
GI50 [14]: 91.8 µM
TGI [14]: > 100 µM
GI50 [15]: 25.4 µM
TGI [15]: > 100 µM
GI50 [16]: 80 µM
TGI [16]: > 100 µM
GI50 [17]: > 100 µM
TGI [17]: > 100 µM
GI50 [18]: > 100 µM
TGI [18]: > 100 µM
GI50 [19]: 77.9 µM
TGI [19]: > 100 µM
GI50 [20]: 83.3 µM
TGI [20]: > 100 µM
GI50 [21]: 63.2 µM
TGI [21]: > 100 µM
GI50 [22]: > 100 µM
TGI [22]: > 100 µM
GI50 [23]: > 100 µM
TGI [23]: > 100 µM
GI50 [24]: 80 µM
TGI [24]: > 100 µM
GI50 [25]: 32.6 µM
TGI [25]: > 100 µM
GI50 [26]: > 100 µM
TGI [26]: > 100 µM
GI50 [27]: > 100 µM
TGI [27]: > 100 µM
GI50 [28]: > 100 µM
TGI [28]: > 100 µM
GI50 [29]: > 100 µM
TGI [29]: > 100 µM
GI50 [30]: > 100 µM
TGI [30]: > 100 µM
GI50 [31]: > 100 µM
TGI [31]: > 100 µM
GI50 [32]: > 100 µM
TGI [32]: > 100 µM
GI50 [33]: > 100 µM
TGI [33]: > 100 µM
GI50 [34]: 73 µM
TGI [34]: > 100 µM
GI50 [35]: > 100 µM
TGI [35]: > 100 µM
GI50 [36]: > 100 µM
TGI [36]: > 100 µM
GI50 [37]: > 100 µM
TGI [37]: > 100 µM
GI50 [38]: > 100 µM
TGI [38]: > 100 µM
GI50 [39]: 62.7 µM
TGI [39]: > 100 µM
GI50 [40]: 73.6 µM
TGI [40]: > 100 µM
GI50 [41]: 91.9 µM
TGI [41]: > 100 µM
GI50 [42]: > 100 µM
TGI [42]: > 100 µM
GI50 [43]: 26.7 µM
TGI [43]: > 100 µM
GI50 [44]: > 100 µM
TGI [44]: > 100 µM
GI50 [45]: 95 µM
TGI [45]: > 100 µM
GI50 [46]: 82.1 µM
TGI [46]: > 100 µM
GI50 [47]: > 100 µM
TGI [47]: > 100 µM
GI50 [48]: 37.5 µM
TGI [48]: > 100 µM
GI50 [49]: 77.4 µM
TGI [49]: > 100 µM
GI50 [50]: 21.3 µM
TGI [50]: > 100 µM
GI50 [51]: > 100 µM
TGI [51]: > 100 µM
GI50 [52]: 85.2 µM
TGI [52]: > 100 µM
GI50 [53]: 39.9 µM
TGI [53]: > 100 µM
GI50 [54]: > 100 µM
TGI [54]: > 100 µM

Cn1nc(C(=O)N2CC(CCl)c3c2cc(N)c2ccccc32)cc1NC(=O)Nc1cc(C(=O)N2CC(CCl)c3c2cc(N)c2ccccc32)nn1C (stereo not drawn)
TGI [2]: 0.511 µM
TGI [3]: > 100 µM
TGI [8]: > 100 µM
TGI [9]: 6.13 µM
TGI [10]: 5.58 µM
TGI [11]: > 100 µM
TGI [14]: > 100 µM
TGI [16]: > 100 µM
TGI [17]: > 100 µM
TGI [18]: > 100 µM
TGI [25]: > 100 µM
TGI [26]: 0.661 µM
TGI [28]: > 100 µM
TGI [29]: > 100 µM
TGI [32]: 69.3 µM
TGI [34]: 0.523 µM
TGI [35]: 2.32 µM
TGI [44]: > 100 µM
TGI [45]: > 100 µM
TGI [49]: > 100 µM
TGI [50]: 65.5 µM
TGI [55]: > 100 µM
TGI [51]: > 100 µM
TGI [53]: 54.5 µM
TGI [54]: > 100 µM
